In patent publication US20110178094A1, “Oral Formulation” (H. LUNDBECK A/S, priority 2008, published 2011):

How the values were obtained:
[1] = system: condition avoidance response (CAR) model; experiment: Condition avoidance response (CAR) model; assay type: in vivo; conditions: rats; at very low levels of D2 receptor occupancy
From the text: The compound of formula I is a putative antipsychotic compound with affinity for both dopamine D1 and D2 receptors.

[2] = system: α1 adrenoceptors; conditions: reported in WO 2005/016900; cited from earlier work
[3] = target: dopamine D2 receptors (Homo sapiens, UniProt P14416); conditions: reported in WO 2005/016900; cited from earlier work
Chain of dopamine D2 receptors (P14416 whole entry): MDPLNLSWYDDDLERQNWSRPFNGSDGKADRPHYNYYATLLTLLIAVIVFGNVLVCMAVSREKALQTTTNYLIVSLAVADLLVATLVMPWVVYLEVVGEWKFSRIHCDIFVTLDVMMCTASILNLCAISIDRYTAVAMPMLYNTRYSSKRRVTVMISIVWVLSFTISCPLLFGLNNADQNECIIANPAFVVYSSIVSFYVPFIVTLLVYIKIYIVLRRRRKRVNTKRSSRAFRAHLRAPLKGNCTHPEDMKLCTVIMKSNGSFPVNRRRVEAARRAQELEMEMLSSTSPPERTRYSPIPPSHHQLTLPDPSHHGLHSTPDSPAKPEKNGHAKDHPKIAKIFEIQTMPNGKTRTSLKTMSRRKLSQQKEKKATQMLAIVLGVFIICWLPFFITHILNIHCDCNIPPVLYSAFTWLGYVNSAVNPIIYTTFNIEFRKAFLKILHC

[4] = system: preclinical models of cognitive dysfunctions; experiment: Preclinical models of cognitive dysfunctions; assay type: in vivo
From the text: It is believed that the 5-HT6 receptor affinity of the compound of formula I is involved in the precognitive effects of the compound. Furthermore, it is believed that such pro-cognitive effect of the compound of formula I will be evident at a low level of D2 receptor occupancy, which is beneficial in terms of the side-effect profile.

[5] = target: dopamine D1 receptors (Homo sapiens, UniProt P21728); conditions: reported in WO 2005/016900; cited from earlier work
Chain of dopamine D1 receptors (P21728 whole entry): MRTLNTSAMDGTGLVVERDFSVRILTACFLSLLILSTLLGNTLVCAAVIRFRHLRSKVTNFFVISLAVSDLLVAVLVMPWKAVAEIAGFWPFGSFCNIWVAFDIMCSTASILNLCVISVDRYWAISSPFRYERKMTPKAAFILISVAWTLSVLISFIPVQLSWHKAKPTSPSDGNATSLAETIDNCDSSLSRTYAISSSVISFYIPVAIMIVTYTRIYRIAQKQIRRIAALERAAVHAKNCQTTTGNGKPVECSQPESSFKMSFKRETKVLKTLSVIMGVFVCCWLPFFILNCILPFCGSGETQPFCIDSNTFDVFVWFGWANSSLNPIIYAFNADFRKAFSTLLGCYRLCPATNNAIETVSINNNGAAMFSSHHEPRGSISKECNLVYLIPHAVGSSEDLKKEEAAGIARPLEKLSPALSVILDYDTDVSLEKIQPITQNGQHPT

[6] = system: 5-HT2 receptor; conditions: reported in WO 2005/016900; cited from earlier work
[7] = Study of the compatibility of the excipients and the compound; assay type: physicochemical; conditions: components used in the tablet formulation
From the text: Based on this, a traditional wet granulation, tabletting and film-coating process was developed using standard methods and excipients.

compatibility of the tablet excipients with the compound [7]: compatible
SMILES: CN1CCN([C@@H]2C[C@@H](c3ccccc3)c3ccc(Cl)cc32)CC1(C)C [compound of formula I, 4-((1R,3S)-6-chloro-3-phenylindan-1-yl)-1,2,2-trimethylpiperazine]
antipsychotic activity in CAR model [1]: possesses antipsychotic activity
affinity for α1 adrenoceptors [2]: high affinity
affinity for dopamine D2 receptors (antagonist) [3]: high affinity
cognition enhancing properties [4]: cognition enhancing properties
affinity for dopamine D1 receptors (antagonist) [5]: high affinity
affinity for the 5-HT2 receptor (antagonist) [6]: high affinity
